Patent US20160031941A1, “TARGETING PEPTIDES THAT BIND S. MUTANS, CONSTRUCTS COMPRISING SUCH PEPTIDES AND USES THEREOF” (priority 2014, published 2016)
Like-named read-outs stand apart in the source and are kept apart here. Ends that are not written are not given here. Peptide text beside a SMILES is read from it.

How the values were obtained:
[1] = system: S. mutans; conditions: Streptococcus mutans
[2] = system: MRSA; test: MIC of antimicrobial peptides; format: cell-based, methicillin resistant Staphylococcus aureus
Procedure: (§1) Typically, the in vitro antimicrobial activity of antimicrobial agents is tested using standard NCCLS bacterial inhibition assays, or MIC tests (see, National Committee on Clinical Laboratory Standards “Performance Standards for Antimicrobial Susceptibility Testing,” NCCLS Document M100-S5 Vol. 14, No. 16, December 1994; “Methods for dilution antimicrobial susceptibility test for bacteria that grow aerobically-Third Edition,” Approved Standard M7-A3, National Committee for Clinical Standards, Villanova, Pa.).

[3] = system: B. subtilis; test: MIC of antimicrobial peptides; format: cell-based
Procedure: as §1

[4] = system: T. rubrum; test: MIC of antimicrobial peptides; format: cell-based
Procedure: as §1

[5] = system: E. coli; test: MIC of antimicrobial peptides; format: cell-based
Procedure: as §1

[6] = system: S. mutans; format: cell-based
Procedure: as §1

[7] = system: P. aeruginosa; format: cell-based
Procedure: as §1

[8] = system: A. niger; test: MIC of antimicrobial peptides; format: cell-based
Procedure: as §1

[9] = system: C. difficile; format: cell-based
Procedure: as §1

[10] = system: S. pneumoniae; format: cell-based
Procedure: as §1

[11] = system: A. baumannii; format: cell-based
Procedure: as §1

[12] = system: C. jeikeium; format: cell-based
Procedure: as §1

[13] = system: S. epidermidis; format: cell-based
Procedure: as §1

CC[C@H](C)[C@H](NC(=O)CNC(=O)[C@H](CCCCN)NC(=O)[C@H](CCCNC(=N)N)NC(=O)[C@@H](NC(=O)[C@@H](NC(=O)[C@H](CCCNC(=N)N)NC(=O)[C@H](CC(C)C)NC(=O)[C@H](CC(N)=O)NC(=O)[C@H](CCCCN)NC(=O)CNC(=O)CNC(=O)CNC(=O)[C@H](CCCCN)NC(=O)CNC(=O)[C@H](CC(C)C)NC(=O)[C@H](C)NC(=O)[C@H](CCC(N)=O)NC(=O)[C@@H](NC(=O)[C@H](CCC(N)=O)NC(=O)[C@H](CO)NC(=O)[C@H](CCCNC(=N)N)NC(=O)[C@H](CC(N)=O)NC(=O)[C@H](CCC(N)=O)NC(=O)[C@H](CC(C)C)NC(=O)[C@H](CCCNC(=N)N)NC(=O)[C@H](Cc1ccccc1)NC(=O)[C@H](CCC(N)=O)NC(=O)[C@@H](N)[C@@H](C)O)[C@@H](C)O)[C@@H](C)CC)[C@@H](C)CC)C(=O)N[C@@H](Cc1c[nH]cn1)C(=O)N[C@H](C(=O)N[C@H](C(=O)N[C@@H](CCCCN)C(=O)N[C@@H](CCCCN)C(=O)N[C@@H](Cc1ccc(O)cc1)C(N)=O)[C@@H](C)CC)[C@@H](C)CC [F7/11/15 sub Q_C16G2]
% viability remaining [1]: 93%

CC[C@H](C)[C@H](NC(=O)CNC(=O)[C@@H](N)CCSC)C(=O)N[C@H](C(=O)N[C@@H](C)C(=O)NCC(=O)N[C@H](C(=O)N[C@H](C(=O)N[C@@H](CCCCN)C(=O)N[C@@H](Cc1ccccc1)C(=O)N[C@H](C(=O)N[C@@H](CCCCN)C(=O)NCC(=O)N[C@@H](CC(C)C)C(=O)N[C@H](C(=O)N[C@@H](CCC(=O)O)C(=O)N[C@@H](CCCCN)C(=O)N[C@@H](Cc1ccccc1)C(=O)N[C@H](C(=O)NCC(=O)N[C@@H](CCCCN)C(=O)O)[C@@H](C)O)[C@@H](C)CC)[C@@H](C)CC)[C@@H](C)CC)[C@@H](C)CC)[C@@H](C)CC [PF-006]
MIC [2]: MRSA, 50 μM | MIC [3]: B. subtilis, 25 μM

CSCC[C@H](N)C(=O)N[C@@H](CCCCN)C(=O)N[C@@H](CCCNC(=N)N)C(=O)N[C@@H](CCCNC(=N)N)C(=O)N[C@@H](CCCNC(=N)N)C(=O)N[C@@H](CS)C(=O)N[C@@H](CC(N)=O)C(=O)N[C@@H](Cc1c[nH]c2ccccc12)C(=O)N[C@@H](CS)C(=O)NCC(=O)N[C@@H](CCCCN)C(=O)N[C@@H](CC(C)C)C(=O)N[C@@H](Cc1ccccc1)C(=O)N[C@@H](Cc1ccc(O)cc1)C(=O)N[C@@H](CC(C)C)C(=O)N[C@@H](CCC(=O)O)C(=O)N[C@@H](CCC(=O)O)C(=O)N[C@@H](CCCCN)C(=O)N[C@@H](CO)C(=O)N[C@@H](CCCCN)C(=O)N[C@@H](CCC(=O)O)C(=O)N[C@@H](C)C(=O)N[C@@H](Cc1ccc(O)cc1)C(=O)N[C@@H](CS)C(=O)N[C@@H](CS)C(=O)N[C@@H](CCCCN)C(=O)N[C@@H](CCC(=O)O)C(=O)N[C@@H](CS)C(=O)N[C@@H](CCCNC(=N)N)C(=O)N[C@@H](CCCCN)C(=O)N[C@@H](CCCCN)C(=O)N[C@@H](C)C(=O)N[C@@H](CCCCN)C(=O)N[C@@H](CCCCN)C(=O)N[C@H](C(=O)N[C@@H](CCCCN)C(=O)N[C@@H](CCCCN)C(=O)O)C(C)C [PF-307] (H-MKRRRCNWCGKLFYLEEKSKEAYCCKECRKKAKKVKK-OH; N-terminus and C-terminus assumed)
MIC [3]: B. subtilis, 50 μM | MIC [4]: T. rubrum, 50 μM

FESKILNASKELDKEKKVNTALSFNSHQDFAKAYQNGKI [PF-606]
MIC [2]: MRSA, 50 μM | MIC [5]: E. coli, 50 μM | MIC ([6]; S. mutans): S. mutans, 50 μM

FIRKFLQKLHL [K-16]
MIC [2]: MRSA, 25 μM | MIC [7]: 12.5 µM | MIC ([6]; S. mutans): S. mutans, 8 μM

GSVIKKRRKRMAKKKHRKLLKKTRIQRRRAGK [PF-527]
MIC [2]: MRSA, 50 μM | MIC [8]: A. niger, 50 μM | MIC [4]: T. rubrum, 25 μM

KFQGEFTNIGQSYIVSASHMSTSLNTGK [PF-583]
MIC [2]: MRSA, 50 μM

KFSDQIDKGQDALKDKLGDL [PF-525]
MIC [8]: A. niger, 50 μM

KNKKQTDILEKVKEILDKKKKTKSVGQKLY [PF-538]
MIC ([9]; C. difficile): C. difficile, 25 μM

LGLTAGVAYAAQPTNQPTNQPTNQPTNQPTNQPTNQPRW-NH2 [PF-520]
MIC ([10]; S. pneumoniae): 50 µM

LSEMERRRLRKRA-NH2 [PF-529]
MIC [8]: A. niger, 50 μM | MIC [10]: 50 µM

LSLATFAKIFMTRSNWSLKRFNRL [PF-278]
MIC [4]: T. rubrum, 50 μM

MIRIRSPTKKKLNRNSISDWKSNTSGRFFY [PF-283]
MIC [3]: B. subtilis, 50 μM | MIC [4]: T. rubrum, 50 μM

MRFGSLALVAYDSAIKHSWPRPSSVRRLRM [PF-672]
MIC [2]: MRSA, 1.56 μM | MIC [8]: A. niger, 3 μM

NYAVVSHT [PF-209]
MIC [2]: MRSA, 50 μM

RESKLIAMADMIRRRI-NH2 [PF-545]
MIC [2]: MRSA, 50 μM

SLQSQLGPCLHDQRH [PF-448]
MIC [8]: A. niger, 25 μM

TAFRLANRSATQALGKGGGKNLRIIRKGIHIIKKY-NH2 (C-terminus assumed) [F2/6/10-A2/6/10_C16G2]
% viability remaining [1]: 78%

TFFRLFNRSFTQALAKGGGKNLRIIRKGIHIIKKY-NH2 (C-terminus assumed) [G15-A15_C16G2]
% viability remaining [1]: 47%

TFFRLFNRSFTQALDKGGGKNLRIIRKGIHIIKKY-NH2 (C-terminus assumed) [G15-D15_C16G2]
% viability remaining [1]: 47%

TFFRLFNRSFTQALFKGGGKNLRIIRKGIHIIKKY-NH2 (C-terminus assumed) [G15-F15_C16G2]
% viability remaining [1]: 29%

TFFRLFNRSFTQALGKGGGKNLRIIRKGIHIIKKY-NH2 [C16G2, reference compound]
% viability remaining [1]: antimicrobial peptide and GGG linker showed 5-18% remaining activity

TFFRLFNRSLTQALGKGGGKNLRIIRKGIHIIKKY-NH2 (C-terminus assumed) [F10-L10_C16G2]
% viability remaining [1]: 30%

TFFRLFNRSQTQALGKGGGKNLRIIRKGIHIIKKY-NH2 (C-terminus assumed) [F10 to Q10_C16G2]
% viability remaining [1]: 73%

TFFRLLNRSFTQALGKGGGKNLRIIRKGIHIIKKY-NH2 (C-terminus assumed) [F6-L6_C16G2]
% viability remaining [1]: 43%

TFFRLQNRSFTQALGKGGGKNLRIIRKGIHIIKKY-NH2 (C-terminus assumed) [F6 to Q6_C16G2]
% viability remaining [1]: 79%

TKKIELKRFVDAFVKKSYENYILERELKKLIKAINEELPTK [PF-600]
MIC [5]: E. coli, 50 μM

TLFRLFNRSFTQALGKGGGKNLRIIRKGIHIIKKY-NH2 (C-terminus assumed) [F2-L2_C16G2]
% viability remaining [1]: 63%

TLFRLLNRSLTQALGKGGGKNLRIIRKGIHIIKKY-NH2 (C-terminus assumed) [F2F6F10-L2L6L10_C16G2]
% viability remaining [1]: 26%

TQFRLFNRSFTQALGKGGGKNLRIIRKGIHIIKKY-NH2 (C-terminus assumed) [F2 to Q2_C16G2]
% viability remaining [1]: 47%

TWFRLFNRSFTQALGKGGGKNLRIIRKGIHIIKKY-NH2 (C-terminus assumed) [F2-W2_C16G2]
% viability remaining [1]: 45%

VLPFPAIPLSRRRACVAAPRPRSRQRAS [PF-168]
MIC [2]: MRSA, 50 μM

VYRKRKSILKIYAKLKGWH [K-2]
MIC [6]: 12.5 µM

WSRVPGHSDTGWKVWHRW-NH2 [PF-547]
MIC [3]: B. subtilis, 25 μM | MIC [4]: T. rubrum, 25 μM | MIC [6]: 12.5 µM

YIQFHLNQQPRPKVKKIKIFL-NH2 [PF-531]
MIC [8]: A. niger, 25 μM | MIC [3]: B. subtilis, 25 μM | MIC [4]: T. rubrum, 50 μM | MIC [11]: 25 µM | MIC [9]: 12.5 µM | MIC [12]: 6.25 µM | MIC [7]: 50 µM | MIC [13]: 50 µM | MIC [6]: 12.5 µM
